Patent US4771043A, “Steroidic aromatase inhibitors” (Farmitalia Carlo Erba, S.p.A., priority 1985, dated 1988)

How the values were obtained:
[1] = system: human placental aromatase; experiment: Aromatase inhibition in vitro (human placental microsomes, 3H2O release from 4-[1β,2β-3H]androstene-3,17-dione); type: biochemical; details: comparison with e.g. 4-OH-A
Method: (§1) Aromatase inhibition by the compounds of the present invention was determined both in vitro (human placental aromatase), and in vivo (ovarian aromatase activity) in rats.
Aromatase inhibition in vitro was determined as follows: the enzyme system was isolated from the microsomal fraction of human placental tissue according to standard procedure. The assay of Thompson and Siiteri [E. A. Thompson and P. K. Siiteri, J. Biol. Chem. 249, 5364, 1974] which determines the rate of aromatization as measured by the liberation of ^3 H2 O from 4-[1β,2β-^3 H]androstene-3,17-dione was used. All incubations were carried out in a shaking water bath at 37° C. in air in 10 mM potassium phosphate buffer, pH 7.5, which contained 100 mM KCl, 1 mM EDTA and 1 mM dithiothreitol. The experiments were carried out in 1 ml incubation volume containing 50 nM 4-[^3 H]androstenedione, various concentrations of the inhibitors, 100 μM NADPH and 0.05 mg of microsomal proteins. After 15 minutes of incubation the reaction was stopped by the addition of chloroform (5 ml). After centrifugation at 1500×g for 5 minutes, aliquots (0.5 ml) were removed from the water phase for determination of ^3 H2 O formed. […] Aromatase inhibition in vivo was determined in rats by the following procedure: […]

rat ovarian aromatase = experiment: Inhibition of rat ovarian aromatase in vivo (PMSG-treated adult female rats, oral dosing, ovarian microsomes assayed 24 hours later); details: for % AROMATASE INHIBITION: rat ovarian microsomes 24 hours after dosing, versus vehicle treated group
Method: as §1
adult female rats were twice treated subcutaneously with 100 I.U. pregnant mares' serum gonadotropin (PMSG) at 4 days' interval, in order to increase ovarian aromatase activity, according to Brodie procedure [A. M. H. Brodie et al, Steroids 38, 693, 1981]. Three days after the second PMSG treatment, groups of 6 animals each were given orally the vehicle (0.5% methocel) or the inhibitor at the dose reported in the following table. Animals were killed 24 hours later, microsomes were isolated from ovaries and their aromatase activity determined using a method similar to that described above for the evaluation of the in vitro activity. The incubation were carried out for 30 minutes in 1 ml incubation volume containing 0.1 mg of microsomal proteins, 100 nM 4-[^3 H]androstenedione and 100 μM NADPH.
% inhibition of control aromatase activity was calculated.

[2] = women, R. C. Coombes et al., Lancet II, 1237, 1984; cited from earlier work

| Structure (SMILES) | in vitro aromatase inhibiting potency compared with reference compounds (in words) [1] | % AROMATASE INHIBITION (rat ovarian aromatase; 10 mg/kg p.o.) [%] | effectiveness in vivo by oral route (in words) (rat ovarian aromatase; 10 mg/kg) | % AROMATASE INHIBITION (rat ovarian aromatase; 30 mg/kg p.o.) [%] | conjugation after oral administration (in words) [2] | % AROMATASE INHIBITION (rat ovarian aromatase; 100 mg/kg p.o.) [%] | effectiveness in vivo by oral route (in words) (rat ovarian aromatase; 100 mg/kg) |
| --- | --- | --- | --- | --- | --- | --- | --- |
| C[C@]12C=CC(=O)C=C1[C@@H](N)C[C@@H]1[C@@H]2CC[C@]2(C)C(=O)CC[C@@H]12 [FCE 24968, 6α-aminoandrosta-1,4-diene-3,17-dione] | less potent in vitro than, e.g., 4-OH-A | 53 | very effective | 71 |  |  |  |
| C[C@]12C=CC(=O)C=C1CC[C@@H]1[C@@H]2CC[C@]2(C)OC(=O)CC[C@@H]12 [testolactone, D-homo-17a-oxaandrosta-1,4-diene-3,17-dione, reference compound] |  |  |  | 2 |  |  |  |
| C[C@]12C=CC(=O)C=C1[C@@H](N=[N+]=[N-])C[C@@H]1[C@@H]2CC[C@]2(C)C(=O)CC[C@@H]12 [FCE 24403, 6α-azido androsta-1,4-diene-3,17-dione] | less potent in vitro than, e.g., 4-OH-A | 81 | very effective | 89 |  |  |  |
| C[C@]12CCC(=O)C(O)=C1CC[C@@H]1[C@@H]2CC[C@]2(C)C(=O)CC[C@@H]12 [4-OH-A, 4-hydroxyandrosta-4-ene-3,17-dione, reference compound] |  |  |  | 7 | extensively conjugated after oral administration | 21 | ineffective |
| C[C@]12C=CC(=O)C=C1CC[C@@H]1[C@@H]2CC[C@]2(C)C(=O)CC[C@@H]12 [androsta-1,4-diene-3,17-dione, reference compound] |  |  |  | 37 |  |  |  |
